Where two headings read alike, the source gives them in different places.
Columns and labels:
CCK-A receptors = target: T1, CCK-A receptors (Cavia porcellus, UniProt Q63931); experiment: Measurement of Binding Affinity for CCK-A Receptors; parameters: species or system Hartley-strain guinea pig; conditions: inhibition of specific [3H]L-364,718 (0.2 nM) binding; guinea pig pancreas; 25° C., 2 hours; pH 6.5
T1 construct: Pancreases were removed from Hartley-strain guinea pigs, the pancreases were homogenized; from tissue; host or cells: pancreas of Hartley-strain guinea pigs, crude membrane pellet
T1 sequence (Q63931 1-430): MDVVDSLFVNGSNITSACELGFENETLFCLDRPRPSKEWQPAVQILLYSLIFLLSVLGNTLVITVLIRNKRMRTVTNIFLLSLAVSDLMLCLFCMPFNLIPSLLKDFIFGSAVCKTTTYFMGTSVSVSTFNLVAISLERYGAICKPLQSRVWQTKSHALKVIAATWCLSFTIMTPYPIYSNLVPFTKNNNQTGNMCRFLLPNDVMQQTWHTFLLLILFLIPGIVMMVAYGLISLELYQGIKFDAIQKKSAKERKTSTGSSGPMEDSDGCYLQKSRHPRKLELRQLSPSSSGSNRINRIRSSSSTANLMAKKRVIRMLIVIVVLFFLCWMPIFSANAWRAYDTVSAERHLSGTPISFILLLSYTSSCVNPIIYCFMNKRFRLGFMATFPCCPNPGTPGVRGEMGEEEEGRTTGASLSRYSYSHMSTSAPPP
Experimental: Pancreases were removed from Hartley-strain guinea pigs, the pancreases were homogenized in 40 volumes of 10 mM PIPES buffer (pH 6.5, which hereinafter be abbreviated as "solvent") containing 1 mM EGTA, 30 mM MgCl2, 0.02% bacitracin, 0.02% soybean trypsin inhibitor and 0.3 M sucrose. The homogenate was filtrated through gauze and centrifuged at 50000×g for 10 minutes. Solvent was added to the pellet and recentrifuged as above. The final pellet thus obtained was homogenized in 40 volumes of solvent and used as the receptor preparation.
Binding assay was measured as follows. Fifty μl of [^3 H]L-364, 718 (at the final concentration of 0.2 nM) and 900 μl of the receptor preparation (50 μg protein/tube) were added to 50 μl of solvent, or L-364, 718 (1 μM) or a test compound. This mixture was incubated at 25° C. for 2 hours. After the reaction, the mixture was filtrated through Whatman GF/B filter presoaked in 0.1% BSA (bovine serum albumin). The filter was washed with 3 ml of ice-cold 10 mM PIPES buffer (pH 6.5) three times, immediately after the filtration. The filter was soaked in the ACS-II scintillation cocktail for one day and radioactivity was measured using a liquid scintillation counter. Non-specific binding was defined as the radioactivity in the presence of 1 μM L-364, 718. Specific binding was defined as the difference between total binding (used solvent without L-364, 718) and non-specific binding. lnhibitor dissociation constant (Ki) of each test compound was determined from the inhibition of specific [^3 H]L-364, 718 binding.

CCK-B receptors = target: T2, CCK-B receptors (Cavia porcellus, UniProt H0VZC5); experiment: Measurement of Binding Affinity for CCK-B Receptors; parameters: species or system Hartley-strain guinea pig
T2 construct: Cerebral cortices were removed from Hartley-strain guinea pigs, the cerebral cortices were homogenized; from tissue; host or cells: cerebral cortex of Hartley-strain guinea pigs, crude membrane pellet
T2 sequence (H0VZC5 1-426): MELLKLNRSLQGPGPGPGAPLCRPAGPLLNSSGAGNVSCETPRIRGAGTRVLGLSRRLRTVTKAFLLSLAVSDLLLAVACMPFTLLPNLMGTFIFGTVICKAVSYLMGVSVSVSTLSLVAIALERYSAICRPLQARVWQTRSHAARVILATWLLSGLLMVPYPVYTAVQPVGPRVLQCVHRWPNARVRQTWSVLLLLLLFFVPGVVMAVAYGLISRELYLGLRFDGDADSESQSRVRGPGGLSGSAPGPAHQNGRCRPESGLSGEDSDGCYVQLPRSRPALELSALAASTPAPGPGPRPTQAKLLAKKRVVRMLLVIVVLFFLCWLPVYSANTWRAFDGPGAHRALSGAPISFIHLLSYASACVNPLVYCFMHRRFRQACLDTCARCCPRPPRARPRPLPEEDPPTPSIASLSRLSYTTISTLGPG
Experimental: Cerebral cortices were removed from Hartley-strain guinea pigs, the cerebral cortices were homogenized in 50 volumes of 50 mM Tris-HCl buffer (pH7.4) and centrifuged at 50000×g for 10 minutes. The Tris-HCl buffer was added to the pellet and recentrifuged as above two times. The final pellet was rehomogenized in 10 mM HEPES buffer (pH 6.5, which hereinafter be abbreviated as "solvent") containing 5 mM MgCl2, 1 mM EGTA, 0.25 mg/ml bacitracin and 130 mM NaCl, and used as the receptor preparation.
Binding assay was measured as follows. Fifty μl of [^3 H]CCK-8 (at the final concentration of 1.0 nM) and 900 μl of the receptor preparation (800 μg protein/tube) were added to 50 μl of either solvent, CCK-8 (1 μM) or a test compound. These ware reacted at 25° C. for 2 hours. After the reaction, the mixture was filtrated through Whatman GF/B filter presoaked in 0.1% BSA. The filter was washed with 3 ml of ice-cold 50 mM Tris-HCl buffer (pH 7.4) four times, immediately after the filtration. The filter was soaked in the ACS-II scintillation cocktail for a day and radioactivity was measured using a liquid scintillation counter. Non-specific binding was defined as the radioactivity in the presence of 1 μM CCK-8. Specific binding was defined as the difference between total binding (used solvent without CCK-8) and non-specific binding. Inhibitor dissociation constant (Ki) of each test compound was determined from the inhibition of specific [^3 H]CCK-8 binding.

[1] = system: pentagastrin-stimulated acid secretion; experiment: Measurement of Inhibition of Pentagastrin-stimulated Acid Secretion; type: in vivo, male Sprague-Dawley (SD)-strain rats; conditions: intraduodenal, rat, acid output from 1 to 4 hours after administration, pentagastrin 15 μg/kg/hr
Experimental: Male Sprague-Dawley (SD)-strain rats were used. Each rat was operated to ligate the pylorus, and equip with a duodenal catheter and gastric fistula under a ether anesthesia. After the operation, each rat was placed in a Bollman-type cage and continuously infused pentagastrin (15 μg/kg/hr) through the tail vein. Test compounds were suspended in 0.5% aqueous sodium carboxymethylcellulose (which hereinafter be abbreviated as "vehicle"). Vehicle or test compound was administered through the intraduodenal catheter 1 hour after the beginning of pentagastrin infusion. Acidity of the collected gastric juice was measured by an automatic titillation device. Acid output was determined by multiplying the volume by the acidity of gastric juice. […] [formula]

[2] = inhibition of specific [3H]CCK-8 (1.0 nM) binding, guinea pig cerebral cortex, 25° C., 2 hours, pH 6.5, read-out: Ki (CCK-B receptors)

Row | SMILES | Ki (CCK-A receptors) [nM] | Ki (CCK-B receptors; [2]) [nM] | inhibition in vivo at 3 mg/kg [1] [%] | inhibition in vivo at 30 mg/kg [1] [%] | inhibition in vivo at 1 mg/kg [1] [%] | Ki (CCK-B receptors) [nM]
1 | CC(C)(C)C(=O)CN1C(=O)C(NC(=O)Nc2cccc(C(=O)O)c2)CN(c2ccccc2F)c2ccccc21 (stereo not drawn) [Example 101, 3-[3-[1-tert-butylcarbonylmethyl-2-oxo-5-(2-fluorophenyl)-1,3,4,5-tetrahydro-2H-1,5-benzodiazepin-3-yl]ureido]benzoic acid] | 472 | 1.13 | 78 | – | – | –
2 | Cc1ccc2c(c1)N(CC(=O)c1ccccc1C)C(=O)C(NC(=O)Nc1ccc(C)c(C(=O)O)c1)CN2C(=O)CC(C)(C)C (stereo not drawn) [Example 120, 5-[3-[1-(2-toluoylmethyl)-2-oxo-5-(3,3-dimethylbutanoyl)-8-methyl-1,3,4,5-tetrahydro-2H-1,5-benzodiazepin-3-yl]ureido]-2-methylbenzoic acid] | 506 | 0.75 | – | 88.3 | – | –
3 | Cc1cccc(NC(=O)N[C@@H]2N=C(c3ccccc3)c3ccccc3N(C)C2=O)c1 [L-365, 260, reference compound] | 0.64 | – | – | 46.5 | – | 24.6

Second part, led by results:

Row | Ki (CCK-A receptors) [nM] | Ki (CCK-B receptors; [2]) [nM] | SMILES | inhibition in vivo at 3 mg/kg [1] [%] | inhibition in vivo at 30 mg/kg [1] [%] | inhibition in vivo at 1 mg/kg [1] [%] | Ki (CCK-B receptors) [nM]
4 | 244 | 0.14 | CC(C)(C)C(=O)CN1C(=O)C(NC(=O)Nc2cccc(SCC(=O)O)c2)CN(c2ccccc2)c2ccccc21 (stereo not drawn) [Example 33, 3-[3-(1-tert-butylcarbonylmethyl-2-oxo-5-phenyl-1,3,4,5-tetrahydro-2H-1,5-benzodiazepin-3-yl)ureido]phenylthioacetic acid] | 77.2 | – | – | –
5 | 120 | 1.39 | Cc1ccc2c(c1)N(CC(=O)c1ccccc1C)C(=O)C(NC(=O)Nc1cccc(C(=O)O)c1)CN2C(=O)C1CCCC1 (stereo not drawn) [Example 87, 3-[3-[1-(2-toluoylmethyl)-2-oxo-5-cyclopentylcarbonyl-8-methyl-1,3,4,5-tetrahydro-2H-1,5-benzodiazepin-3-yl]ureido]benzoic acid] | – | 80.1 | – | –
6 | 130 | 0.59 | Cc1ccc2c(c1)N(CC(=O)c1ccccc1C)C(=O)C(NC(=O)Nc1cccc(C(=O)O)c1)CN2C(=O)c1cccs1 (stereo not drawn) [Example 104, 3-[3-[1-(2-toluoylmethyl)-2-oxo-5-(2-thenoyl)-8-methyl-1,3,4,5-tetrahydro-2H-1,5-benzodiazepin-3-yl]ureido]benzoic acid] | – | – | 58 | –
7 | 346 | 1.81 | Cc1ccc2c(c1)N(CC(=O)c1ccccc1C)C(=O)C(NC(=O)Nc1cccc(C(=O)O)c1)CN2C(=O)CC(C)(C)C (stereo not drawn) [Example 109, 3-[3-[1-(2-toluoylmethyl)-2-oxo-5-(3,3-dimethylbutanoyl)-8-methyl-1,3,4,5-tetrahydro-2H-1,5-benzodiazepin-3-yl]ureido]benzoic acid] | – | – | 54 | –
